Structures can show the parent of a compound that is named as a salt.
Key:
p-ERK in GP2D cells = experiment: Assay of p-ERK inhibition in GP2D cells (HTRF); assay type: cell-based; conditions: 1 hour incubation
Protocol: The cell plate was inoculated in a carbon dioxide incubator at 37° C. overnight; • 2) 2 μL of the compound was weighed and added to 78 μL of the cell medium. After the mixture was mixed thoroughly, 20 μL of the solution of compound was weighed and added to the corresponding well of the cell plate. The cell plate was placed back to the carbon dioxide incubator and incubated for another 1 hour; • 3) After completion of the incubation, the cell supernatant was discarded. 50 μL of 1× cell lysate was added to each well. The mixture was incubated with shaking at room temperature for 30 minutes; • 4) Phospho-ERK1/2 Eu Cryptate antibody and Phospho-ERK1/2 d2 antibody were diluted 20-fold with detection buffer; • 5) 16 μL of cell lysate supernatant was weighed and added into each well of a new 384 white microwell plate, and then 2 μL of the diluted solution of Phospho-ERK1/2 Eu Cryptate antibody and 2 μL of the diluted solution of Phospho-ERK1/2 d2 antibody dilution were added. The mixture was incubated at room temperature for at least 4 hours; • 6) After completion of the incubation, HTRF was read with multi-label analyzer: excitation: 320 nm, emission: 615 nm, 665 nm; • 7). IC50 of the compounds to be assayed was calculated.

[1] = test system: xenograft tumor of human colon cancer GP2D; experiment: Pharmacodynamics in vivo: Balb/c nude mouse subcutaneous xenograft of human colon cancer GP2D cells; conditions: PO, BID*20, 20th day
Protocol: A Balb/c nude mouse model of subcutaneously xenograft tumor of human colon cancer GP2D cell was established. 0.2 mL (2×10^6) of GP2D cells (Matrigel was added, and volume ratio was 1:1) were inoculated subcutaneously on the right back of each mouse. When the average tumor volume reached 149 mm^3, the administration was started by group, with 6 mice in each group. On the day of the assay, the animals were administered the corresponding drugs according to the corresponding groups. The first group G1 was set as a negative control group, which was given 5% DMSO+95%(10% HP-β-CD) alone by gavage administration. The second group G2 to the fourth group G4 were given compound 1 hydrochloride, and the dosage and protocol of administration were shown in Table 13.
During the assay, the body weight of animals and the tumor size were measured twice a week. Meanwhile clinical symptoms of animals were observed and recorded every day. Each administration was referenced to the most recent body weight of animals.
The length (a) and width (b) of a tumor were measured with a digital vernier caliper. The calculation formula of tumor volume (Tumor volume, TV) was: TV=a×b^2/2.

## Cc1cc(N)c(F)c(C2Cc3nc(OC[C@@]45CCCN4C[C@H](F)C5)nc(N4CC5CCC(C4)N5)c3CO2)c1C(F)(F)F (stereo partly shown) [Compound 1 hydrochloride]
p-ERK in GP2D cells
  IC50: 0.8 nM
[1]; G2, 3 mg/kg
  Tumor volume inhibition rate TGI (%): 19.4%
[1]; G3, 10 mg/kg
  Tumor volume inhibition rate TGI (%): 53.9%
[1]; G4, 30 mg/kg
  Tumor volume inhibition rate TGI (%): 83.7%
